# Reference: PubChem BioAssay AID1963871 (Molecular Pharmacology Branch, DTP, NCI, 2024)
# System: KRAS-mutant PDC multicell tumor spheroid viability
# Assay: Anticancer human tumor 521955-158-R2-J5-PDC patient-derived pancreatic carcinoma cell line growth inhibition [KRAS2]
# Conditions: for IC50: curve of first compound; for viability, T/C: stronger effect = lower value
# Outline: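 KRAS-mutant tumor cells were grown as spheroids with HUVEC endothelial cells and human MSCs as stroma. Targeted agents were tested alone and with KRAS pathway inhibitors. Doses started at or near clinical Cmax, or 10 microM, descending half-log.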
# [1] = second compound 0.1 µM, first compound 0.0316 µM
# [2] = second compound 0.1 µM, first compound 0.1 µM
# [3] = second compound 0.1 µM, first compound 0.316 µM
# [4] = second compound 0.1 µM, first compound 1 µM
# [5] = second compound 0.1 µM, first compound 3.16 µM
# [6] = second compound 0.1 µM, first compound 10 µM
# [7] = second compound 0.316 µM, first compound 0.0316 µM
# [8] = second compound 0.316 µM, first compound 0.1 µM
# [9] = second compound 0.316 µM, first compound 0.316 µM
# [10] = second compound 0.316 µM, first compound 1 µM
# [11] = second compound 0.316 µM, first compound 3.16 µM
# [12] = second compound 0.316 µM, first compound 10 µM
# [13] = second compound 1 µM, first compound 0.0316 µM
# [14] = second compound 1 µM, first compound 0.1 µM
# [15] = second compound 1 µM, first compound 0.316 µM
# [16] = second compound 1 µM, first compound 1 µM
# [17] = second compound 1 µM, first compound 3.16 µM
# [18] = second compound 1 µM, first compound 10 µM
# [19] = second compound 3.16 µM, first compound 0.0316 µM
# [20] = second compound 3.16 µM, first compound 0.1 µM
# [21] = second compound 3.16 µM, first compound 0.316 µM
# [22] = second compound 3.16 µM, first compound 1 µM
# [23] = second compound 3.16 µM, first compound 3.16 µM
# [24] = second compound 3.16 µM, first compound 10 µM
# [25] = second compound 10 µM, first compound 0.0316 µM
# [26] = second compound 10 µM, first compound 0.1 µM
# [27] = second compound 10 µM, first compound 0.316 µM
# [28] = second compound 10 µM, first compound 1 µM
# [29] = second compound 10 µM, first compound 3.16 µM
# [30] = second compound 10 µM, first compound 10 µM
# 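Also: viability read after seven days of drug exposure.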
SMILES,IC50 (second compound 0.1 µM),IC50 (second compound 0.316 µM),IC50 (second compound 1 µM),IC50 (second compound 3.16 µM),"viability, T/C [1]","viability, T/C [2]","viability, T/C [3]","viability, T/C [4]","viability, T/C [5]","viability, T/C [6]","viability, T/C [7]","viability, T/C [8]","viability, T/C [9]","viability, T/C [10]","viability, T/C [11]","viability, T/C [12]","viability, T/C [13]","viability, T/C [14]","viability, T/C [15]","viability, T/C [16]",also measured
COC(=O)c1ccc2c(C(=Nc3ccc(N(C)C(=O)CN4CCN(C)CC4)cc3)c3ccccc3)c(O)[nH]c2c1 + CC1OCC2(CCN(c3cnc(Sc4ccnc(N)c4Cl)c(N)n3)CC2)C1N,2490 nM,1800 nM,1070 nM,1080 nM,79.4%,80.7%,72.9%,80.8%,42.5%,0.38%,66.3%,70.5%,60%,85.4%,30.1%,0.37%,46.8%,46.7%,55.9%,57%,"IC50 (second compound 10 µM): 1120 nM; viability, T/C [17]: 26.6%; viability, T/C [18]: 0.4%; viability, T/C [19]: 56%; viability, T/C [20]: 58.6%; viability, T/C [21]: 58%; viability, T/C [22]: 51.7%; viability, T/C [23]: 23.2%; viability, T/C [24]: 0.51%; viability, T/C [25]: 61.1%; viability, T/C [26]: 58.3%; viability, T/C [27]: 64.3%; viability, T/C [28]: 55.4%; viability, T/C [29]: 0.64%; viability, T/C [30]: 0.38%"
O=C(c1cc(Cc2n[nH]c(=O)c3ccccc23)ccc1F)N1CCN(C(=O)C2CC2)CC1 + C=CC(=O)N1CCN(c2nc(OCC3CCCN3C)nc3c2CCN(c2cccc4cccc(C)c24)C3)CC1CC#N,> 10000 nM,> 10000 nM,6450 nM,< 31.6 nM,95.2%,94.9%,93.7%,92.2%,78.5%,54%,94.2%,92.8%,84.8%,82.9%,78.3%,59.1%,100%,101%,85%,73.3%,"IC50 (second compound 0.0316 µM): > 10000 nM; viability, T/C (second compound 0.0316 µM, first compound 0.0316 µM): 104%; viability, T/C (second compound 0.0316 µM, first compound 0.1 µM): 101%; viability, T/C (second compound 0.0316 µM, first compound 0.316 µM): 99.4%; viability, T/C (second compound 0.0316 µM, first compound 1 µM): 85.1%; viability, T/C (second compound 0.0316 µM, first compound 3.16 µM): 80.2%; viability, T/C (second compound 0.0316 µM, first compound 10 µM): 61.3%; viability, T/C [17]: 70%; viability, T/C [18]: 39.5%; viability, T/C [19]: 4.24%; viability, T/C [20]: 1.68%; viability, T/C [21]: 1.74%; viability, T/C [22]: 1.67%; viability, T/C [23]: 2.07%; viability, T/C [24]: 0.32%"
CC1OCC2(CCN(c3cnc(Sc4ccnc(N)c4Cl)c(N)n3)CC2)C1N (stereo not given) + C=CC(=O)N1CCN(c2nc(=O)n(-c3c(C)ccnc3C(C)C)c3nc(-c4c(O)cccc4F)c(F)cc23)C(C)C1,> 10000 nM,> 10000 nM,> 10000 nM,> 10000 nM,89.8%,96.4%,76.3%,72%,97.5%,67.6%,89.4%,81.5%,76.2%,75.7%,71.6%,63.4%,101%,88.4%,91.8%,87.4%,"IC50 (second compound 10 µM): > 10000 nM; viability, T/C [17]: 71.7%; viability, T/C [18]: 66.4%; viability, T/C [19]: 92.1%; viability, T/C [20]: 87.5%; viability, T/C [21]: 72.3%; viability, T/C [22]: 79.1%; viability, T/C [23]: 62%; viability, T/C [24]: 64.7%; viability, T/C [25]: 66.2%; viability, T/C [26]: 59.3%; viability, T/C [27]: 66.2%; viability, T/C [28]: 61.3%; viability, T/C [29]: 54.6%; viability, T/C [30]: 57.8%"
